In US20260022142A1, “MACROCYCLIC IMMUNOMODULATORS” (Bristol-Myers Squibb Company, priority 2022, published 2026):
Bridge positions count the residues as written; N and C are the ends. Square brackets hold non-standard residues; d marks the D form. Peptide text beside a SMILES is read from it. * marks the point of attachment. ξ: configuration not given here. Phe(4-COOH) = N[C@@H](Cc1ccc(C(=O)O)cc1)C(=O)O; Bip = N[C@@H](Cc1ccc(-c2ccccc2)cc1)C(=O)O; Phe(3-Me) = Cc1cccc(C[C@H](N)C(=O)O)c1; Phe(4-F) = N[C@@H](Cc1ccc(F)cc1)C(=O)O; Val(3-OH) = CC(C)(O)[C@H](N)C(=O)O; 4Pal = N[C@@H](Cc1ccncc1)C(=O)O; Cha = N[C@@H](CC1CCCCC1)C(=O)O; Cit = NC(=O)NCCC[C@H](N)C(=O)O; Ile(3ξ) = CCC(C)[C@H](N)C(=O)O; Thr(3ξ) = CC(O)[C@H](N)C(=O)O; dDab = NCC[C@@H](N)C(=O)O; Carboxymethyl = O=C(O)C*; Orn = NCCC[C@H](N)C(=O)O; Aun = NCCCCCCCCCCC(=O)O; Dab = NCC[C@H](N)C(=O)O; AEEA = NCCOCCOCC(=O)O

Target: T1, PD-1/PD-L1 interaction (PE-labeled human PD-L1-Ig binding to Jurkat cell line over-expressing human PD-1) (Homo sapiens, UniProt Q15116)
T1 construct: expressed in transfected cells; host or cells: Jurkat
Experiment: Jurkat-PD-1 Cell Binding High-Content Screening Assay (CBA)
Type: cell-based
Details: Jurkat cell line over-expressing human PD-1; PE-labeled PD-L1-Ig 20 nM final; read-out: Jurkat hPD1-PDL1 IC50
Procedure, shortened: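 Binding of fluorescent PD-L1-Ig (20 nM final) to Jurkat-PD-1 cells was measured by automated imaging after 1 h, following a 2 h compound pre-treatment at 37° C.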

T1 sequence (Q15116 25-288): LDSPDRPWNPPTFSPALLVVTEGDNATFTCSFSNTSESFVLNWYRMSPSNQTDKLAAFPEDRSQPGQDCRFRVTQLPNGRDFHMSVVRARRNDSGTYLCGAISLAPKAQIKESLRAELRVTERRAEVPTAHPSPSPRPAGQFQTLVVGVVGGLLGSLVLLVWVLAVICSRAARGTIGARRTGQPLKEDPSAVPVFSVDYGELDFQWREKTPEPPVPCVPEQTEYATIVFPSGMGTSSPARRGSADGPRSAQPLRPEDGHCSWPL

| SMILES | IC50 [nM] |
| --- | --- |
| Cc1cccc(C[C@@H]2NC(=O)[C@H](CC(=O)O)NC(=O)[C@H](Cc3ccc(F)cc3)NC(=O)[C@H](CCN)NC(=O)CSC[C@@H](C(=O)N[C@@H](CCN)C(=O)NCCCCCCCCCCC(=O)O)NC(=O)[C@H](CO)NC(=O)[C@H](C(C)(C)O)NC(=O)[C@H](CC3CCCCC3)NC(=O)[C@H](Cc3cnc[nH]3)NC(=O)[C@@H](CC(C)C)NC(=O)[C@H](CCCN)NC(=O)[C@H](Cc3ccc(OCC(=O)O)cc3)NC(=O)[C@H](Cc3ccc(-c4ccccc4)cc3)NC(=O)[C@H](Cc3ccc(OCC(=O)O)cc3)NC2=O)c1 [Compound 3732] ({CH2CO}-[Dab][Phe(4-F)]D[Phe(3-Me)]Y(Carboxymethyl)[Bip]Y(Carboxymethyl)[Orn][dL]H[Cha][Val(3-OH)]SC[Dab][Aun]-OH; thioether N-14) | 56.2 |
| Cc1cccc(C[C@@H]2NC(=O)[C@H](CC(=O)O)NC(=O)[C@H](Cc3ccc(OCC(=O)O)cc3)NC(=O)[C@H](Cc3ccncc3)NC(=O)CSC[C@@H](C(=O)N[C@@H](CCN)C(=O)NCCCCCCCCCCC(=O)O)NC(=O)[C@H](CO)NC(=O)[C@H](C(C)(C)O)NC(=O)[C@H](CC3CCCCC3)NC(=O)[C@H](Cc3c[nH]cn3)NC(=O)[C@@H](CC(C)C)NC(=O)[C@H](CCCN)NC(=O)[C@H](Cc3ccc(OCC(=O)O)cc3)NC(=O)[C@H](Cc3ccc(-c4ccccc4)cc3)NC(=O)[C@H](Cc3ccc(F)cc3)NC2=O)c1 [Compound 3733] ({CH2CO}-[4Pal]Y(Carboxymethyl)D[Phe(3-Me)][Phe(4-F)][Bip]Y(Carboxymethyl)[Orn][dL]H[Cha][Val(3-OH)]SC[Dab][Aun]-OH; thioether N-14) | 115 |
| Cc1cccc(C[C@@H]2NC(=O)[C@H](CC(=O)O)NC(=O)[C@H](Cc3ccc(F)cc3)NC(=O)[C@H](Cc3ccncc3)NC(=O)CSC[C@@H](C(=O)N[C@@H](CCN)C(=O)NCCCCCCCCCCC(=O)O)NC(=O)[C@H](CO)NC(=O)[C@H](C(C)(C)O)NC(=O)[C@H](CC3CCCCC3)NC(=O)[C@H](Cc3c[nH]cn3)NC(=O)[C@@H](CC(C)C)NC(=O)[C@H](CCCN)NC(=O)[C@H](Cc3ccc(OCC(=O)O)cc3)NC(=O)[C@H](Cc3ccc(-c4ccccc4)cc3)NC(=O)[C@H](Cc3ccc(OCC(=O)O)cc3)NC2=O)c1 [Compound 3734] ({CH2CO}-[4Pal][Phe(4-F)]D[Phe(3-Me)]Y(Carboxymethyl)[Bip]Y(Carboxymethyl)[Orn][dL]H[Cha][Val(3-OH)]SC[Dab][Aun]-OH; thioether N-14) | 128 |
| Cc1cccc(C[C@@H]2NC(=O)[C@H](CC(=O)O)NC(=O)[C@H](Cc3ccc(C(=O)O)cc3)NC(=O)[C@H](Cc3ccncc3)NC(=O)CSC[C@@H](C(=O)NCCOCCOCC(=O)NCCOCCOCC(=O)NCCCCCCCCCCC(=O)O)NC(=O)[C@H](Cc3cnc[nH]3)NC(=O)[C@H](C(C)(C)O)NC(=O)[C@H](CC3CCCCC3)NC(=O)[C@H](CCN)NC(=O)[C@@H](CC(C)C)NC(=O)[C@H](CCCN)NC(=O)[C@H](Cc3ccc(OCC(=O)O)cc3)NC(=O)[C@H](Cc3ccc(-c4ccccc4)cc3)NC(=O)[C@H](Cc3ccc(OCC(=O)O)cc3)NC2=O)c1 [Compound 3735] ({CH2CO}-[4Pal][Phe(4-COOH)]D[Phe(3-Me)]Y(Carboxymethyl)[Bip]Y(Carboxymethyl)[Orn][dL][Dab][Cha][Val(3-OH)]HC[AEEA][AEEA][Aun]-OH; thioether N-14) | 20.6 |
| CC(C)C[C@H]1NC(=O)[C@H](CCCN)NC(=O)[C@H](CCCNC(N)=O)NC(=O)[C@H](Cc2ccc(-c3ccccc3)cc2)NC(=O)[C@H](C(C)C)NC(=O)[C@H](Cc2c[nH]c3ccccc23)NC(=O)[C@H](CC(=O)O)NC(=O)[C@H](Cc2ccc(OCC(=O)O)cc2)NC(=O)[C@H](C(C)O)NC(=O)CSC[C@@H](C(=O)N[C@@H](CCN)C(=O)NCCOCCOCC(=O)NCCCCCCCCCCC(=O)O)NC(=O)[C@H](C(C)O)NC(=O)[C@H](C(C)(C)O)NC(=O)[C@H](CC2CCCCC2)NC(=O)[C@H](CCN)NC1=O (stereo partly drawn) [Compound 3736] ({CH2CO}-[Thr(3ξ)]Y(Carboxymethyl)DWV[Bip][Cit][Orn][dL][Dab][Cha][Val(3-OH)][Thr(3ξ)]C[Dab][AEEA][Aun]-OH; thioether N-14) | 18.5 |
| Cc1cccc(C[C@@H]2NC(=O)[C@H](CC(=O)O)NC(=O)[C@H](Cc3ccc(OCC(=O)O)cc3)NC(=O)[C@H](C(C)O)NC(=O)CSC[C@@H](C(=O)N[C@@H](CCN)C(=O)NCCOCCOCC(=O)NCCCCCCCCCCC(=O)O)NC(=O)[C@H](CCC(=O)O)NC(=O)[C@H](C(C)C)NC(=O)[C@H](CC3CCCCC3)NC(=O)[C@H](CCN)NC(=O)[C@@H](CC(C)C)NC(=O)[C@H](CCCN)NC(=O)[C@H](Cc3ccc(OCC(=O)O)cc3)NC(=O)[C@H](Cc3ccc(-c4ccccc4)cc3)NC(=O)[C@H](Cc3ccc(C(=O)O)cc3)NC2=O)c1 (stereo partly drawn) [Compound 3737] ({CH2CO}-[Thr(3ξ)]Y(Carboxymethyl)D[Phe(3-Me)][Phe(4-COOH)][Bip]Y(Carboxymethyl)[Orn][dL][Dab][Cha]VEC[Dab][AEEA][Aun]-OH; thioether N-14) | 10.5 |
| Cc1cccc(C[C@@H]2NC(=O)[C@H](CC(=O)O)NC(=O)[C@H](Cc3ccc(OCC(=O)O)cc3)NC(=O)[C@H](Cc3ccncc3)NC(=O)CSC[C@@H](C(=O)N[C@H](CCN)C(=O)NCCCCCCCCCCC(=O)O)NC(=O)[C@H](Cc3cnc[nH]3)NC(=O)[C@H](C(C)(C)O)NC(=O)[C@H](CC3CCCCC3)NC(=O)[C@H](CCN)NC(=O)[C@@H](CC(C)C)NC(=O)[C@H](CCCN)NC(=O)[C@H](Cc3ccc(OCC(=O)O)cc3)NC(=O)[C@H](Cc3ccc(-c4ccccc4)cc3)NC(=O)[C@H](Cc3ccc(OCC(=O)O)cc3)NC2=O)c1 [Compound 3738] ({CH2CO}-[4Pal]Y(Carboxymethyl)D[Phe(3-Me)]Y(Carboxymethyl)[Bip]Y(Carboxymethyl)[Orn][dL][Dab][Cha][Val(3-OH)]HC[dDab][Aun]-OH; thioether N-14) | 20.7 |
| CCC(C)[C@@H]1NC(=O)[C@H](Cc2ccc(-c3ccccc3)cc2)NC(=O)[C@H](Cc2ccc(C(=O)O)cc2)NC(=O)[C@H](Cc2cccc(C)c2)NC(=O)[C@H](CC(=O)O)NC(=O)[C@H](Cc2ccc(C(=O)O)cc2)NC(=O)[C@H](Cc2ccncc2)NC(=O)CSC[C@@H](C(=O)N[C@H](CCN)C(=O)NCCOCCOCC(=O)NCCCCCCCCCCC(=O)O)NC(=O)[C@H](CCC(=O)O)NC(=O)[C@H](C(C)(C)O)NC(=O)[C@H](CC2CCCCC2)NC(=O)[C@H](CCN)NC(=O)[C@@H](CC(C)C)NC(=O)[C@H](Cc2cnc[nH]2)NC1=O (stereo partly drawn) [Compound 3739] ({CH2CO}-[4Pal][Phe(4-COOH)]D[Phe(3-Me)][Phe(4-COOH)][Bip][Ile(3ξ)]H[dL][Dab][Cha][Val(3-OH)]EC[dDab][AEEA][Aun]-OH; thioether N-14) | 40.5 |
| Cc1cccc(C[C@@H]2NC(=O)[C@H](CC(=O)O)NC(=O)[C@H](Cc3ccc(OCC(=O)O)cc3)NC(=O)[C@H](Cc3ccncc3)NC(=O)CSC[C@@H](C(=O)N[C@H](CCN)C(=O)NCCOCCOCC(=O)NCCCCCCCCCCC(=O)O)NC(=O)[C@H](CCC(=O)O)NC(=O)[C@H](C(C)(C)O)NC(=O)[C@H](CC3CCCCC3)NC(=O)[C@H](CCN)NC(=O)[C@@H](CC(C)C)NC(=O)[C@H](Cc3cnc[nH]3)NC(=O)[C@H](Cc3ccc(C(=O)O)cc3)NC(=O)[C@H](Cc3ccc(-c4ccccc4)cc3)NC(=O)[C@H](Cc3ccc(C(=O)O)cc3)NC2=O)c1 [Compound 3740] ({CH2CO}-[4Pal]Y(Carboxymethyl)D[Phe(3-Me)][Phe(4-COOH)][Bip][Phe(4-COOH)]H[dL][Dab][Cha][Val(3-OH)]EC[dDab][AEEA][Aun]-OH; thioether N-14) | 16.1 |
| Cc1cccc(C[C@@H]2NC(=O)[C@H](CC(=O)O)NC(=O)[C@H](Cc3ccc(OCC(=O)O)cc3)NC(=O)[C@H](Cc3ccncc3)NC(=O)CSC[C@@H](C(=O)N[C@@H](CCN)C(=O)NCCOCCOCC(=O)NCCOCCOCC(=O)NCCCCCCCCCCC(=O)O)NC(=O)[C@H](CCC(=O)O)NC(=O)[C@H](C(C)(C)O)NC(=O)[C@H](CC3CCCCC3)NC(=O)[C@H](CCN)NC(=O)[C@@H](CC(C)C)NC(=O)[C@H](CCCN)NC(=O)[C@H](Cc3ccc(C(=O)O)cc3)NC(=O)[C@H](Cc3ccc(-c4ccccc4)cc3)NC(=O)[C@H](Cc3ccc(C(=O)O)cc3)NC2=O)c1 [Compound 3741] ({CH2CO}-[4Pal]Y(Carboxymethyl)D[Phe(3-Me)][Phe(4-COOH)][Bip][Phe(4-COOH)][Orn][dL][Dab][Cha][Val(3-OH)]EC[Dab][AEEA][AEEA][Aun]-OH; thioether N-14) | 8.8 |
| Cc1cccc(C[C@@H]2NC(=O)[C@H](CC(=O)O)NC(=O)[C@H](Cc3ccc(OCC(=O)O)cc3)NC(=O)[C@H](Cc3ccncc3)NC(=O)CSC[C@@H](C(=O)N[C@@H](CCN)C(=O)NCCOCCOCC(=O)NCCOCCOCC(=O)NCCCCCCCCCCC(=O)O)NC(=O)[C@H](Cc3cnc[nH]3)NC(=O)[C@H](C(C)(C)O)NC(=O)[C@H](CC3CCCCC3)NC(=O)[C@H](CCN)NC(=O)[C@@H](CC(C)C)NC(=O)[C@H](CCCN)NC(=O)[C@H](Cc3ccc(C(=O)O)cc3)NC(=O)[C@H](Cc3ccc(-c4ccccc4)cc3)NC(=O)[C@H](Cc3ccc(C(=O)O)cc3)NC2=O)c1 [Compound 3742] ({CH2CO}-[4Pal]Y(Carboxymethyl)D[Phe(3-Me)][Phe(4-COOH)][Bip][Phe(4-COOH)][Orn][dL][Dab][Cha][Val(3-OH)]HC[Dab][AEEA][AEEA][Aun]-OH; thioether N-14) | 1.7 |
| Cc1cccc(C[C@@H]2NC(=O)[C@H](CC(=O)O)NC(=O)[C@H](Cc3ccc(C(=O)O)cc3)NC(=O)[C@H](C(C)C)NC(=O)CSC[C@@H](C(=O)N[C@@H](CCN)C(=O)NCCOCCOCC(=O)NCCCCCCCCCCC(=O)O)NC(=O)[C@H](CO)NC(=O)[C@H](C(C)(C)O)NC(=O)[C@H](CC3CCCCC3)NC(=O)[C@H](CCN)NC(=O)[C@@H](CC(C)C)NC(=O)[C@H](CCCN)NC(=O)[C@H](Cc3ccc(OCC(=O)O)cc3)NC(=O)[C@H](Cc3ccc(-c4ccccc4)cc3)NC(=O)[C@H](Cc3ccc(OCC(=O)O)cc3)NC2=O)c1 [Compound 3743] ({CH2CO}-V[Phe(4-COOH)]D[Phe(3-Me)]Y(Carboxymethyl)[Bip]Y(Carboxymethyl)[Orn][dL][Dab][Cha][Val(3-OH)]SC[Dab][AEEA][Aun]-OH; thioether N-14) | 4.8 |
